Biological target: Melatonin receptor (Homo sapiens, UniProt P48039+P49286)
Assay: Ability to inhibit 2-[125I]iodomelatonin specific binding to human melatonin receptor type 1A (MT1) expressed in CHO cells.
Assay type: cell-based

| Ki [nM] | SMILES |
| --- | --- |
| 0.0733 | COc1ccc2c(c1)[C@H](CCNC(C)=O)CC2 |
| 0.00602 | COc1ccc2c(c1)C(CCNC(=O)C(F)(F)F)=C(c1ccccc1)C2 |
| 0.131 | COc1ccc2c(c1)C(CCNC(C)=O)CC2 (stereo not drawn) |
| 1.6 | COc1ccc2c(c1)C(CCNC(=O)C(F)(F)F)C(c1ccccc1)C2 (stereo not drawn) |
| 0.0321 | CCCC(=O)NCC[C@@H]1CCc2ccc(OC)cc21 |
| 10.6 | COc1ccc2c(c1)[C@@H](CCNC(C)=O)CC2 |
| 43.7 | CCCC(=O)NCC[C@H]1CCc2ccc(OC)cc21 |
| 0.0553 | CCCC(=O)NCCC1CCc2ccc(OC)cc21 (stereo not drawn) |

— ChEMBL document CHEMBL1135781 (J Med Chem, 2002)
